Experimental findings from publication PMC3292553, “Flavonoid Glycosides Isolated from Unique Legume Plant Extracts as Novel Inhibitors of Xanthine Oxidase” (PLoS ONE, 2012) are described below.

The target in this experiment is T1, Xanthine oxidase from bovine milk (Bos taurus, UniProt P80457).
T1 construct: Xanthine oxidase from bovine milk and allopurinol were purchased from Sigma-Aldrich; purchased Sigma-Aldrich (St Louis MO, USA); host or cells: bovine milk (natural source)
Put plainly: Assessment of XO activity (formation of uric acid from xanthine, 295 nm). The format is biochemical. The following applies: pure compounds; for Inhibition type: kinetic analysis; for Ki: kinetic analysis (Lineweaver-Burk, Grafit 6); for IC50: XO inhibition.

T1 sequence (P80457 whole entry): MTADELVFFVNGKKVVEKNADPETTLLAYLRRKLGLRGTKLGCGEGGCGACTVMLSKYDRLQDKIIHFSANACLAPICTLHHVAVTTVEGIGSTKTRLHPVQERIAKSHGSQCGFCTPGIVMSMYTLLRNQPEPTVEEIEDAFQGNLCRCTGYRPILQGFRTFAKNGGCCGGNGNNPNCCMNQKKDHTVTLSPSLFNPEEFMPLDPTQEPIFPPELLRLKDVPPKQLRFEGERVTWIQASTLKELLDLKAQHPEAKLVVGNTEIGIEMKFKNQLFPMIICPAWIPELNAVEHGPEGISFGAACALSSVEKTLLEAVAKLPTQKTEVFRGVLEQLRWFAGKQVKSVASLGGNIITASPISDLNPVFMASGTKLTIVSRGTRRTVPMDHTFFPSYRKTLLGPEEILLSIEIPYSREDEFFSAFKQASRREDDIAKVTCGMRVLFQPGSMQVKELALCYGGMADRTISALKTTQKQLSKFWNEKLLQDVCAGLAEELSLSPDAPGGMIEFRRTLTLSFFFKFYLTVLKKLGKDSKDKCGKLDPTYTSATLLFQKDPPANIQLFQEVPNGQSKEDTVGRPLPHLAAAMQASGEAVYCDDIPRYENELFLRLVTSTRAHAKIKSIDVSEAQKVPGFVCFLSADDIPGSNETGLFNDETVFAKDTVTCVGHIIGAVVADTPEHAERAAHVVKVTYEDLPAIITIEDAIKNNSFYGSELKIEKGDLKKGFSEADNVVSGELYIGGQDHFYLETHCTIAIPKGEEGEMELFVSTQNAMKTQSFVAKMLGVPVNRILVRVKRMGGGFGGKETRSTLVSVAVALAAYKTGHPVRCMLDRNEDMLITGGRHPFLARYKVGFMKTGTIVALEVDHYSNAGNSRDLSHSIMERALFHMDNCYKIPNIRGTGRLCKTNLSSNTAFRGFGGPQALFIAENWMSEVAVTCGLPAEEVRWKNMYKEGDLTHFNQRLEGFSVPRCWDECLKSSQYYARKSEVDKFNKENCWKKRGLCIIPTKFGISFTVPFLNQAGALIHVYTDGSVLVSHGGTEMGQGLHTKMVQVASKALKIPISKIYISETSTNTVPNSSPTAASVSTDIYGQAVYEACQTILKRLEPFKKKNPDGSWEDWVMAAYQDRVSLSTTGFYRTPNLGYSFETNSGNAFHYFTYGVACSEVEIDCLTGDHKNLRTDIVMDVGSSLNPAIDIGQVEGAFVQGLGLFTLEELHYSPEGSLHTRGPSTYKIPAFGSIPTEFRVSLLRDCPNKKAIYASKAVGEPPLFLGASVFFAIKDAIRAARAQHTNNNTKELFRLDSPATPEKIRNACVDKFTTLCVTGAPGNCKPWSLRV
Description: XO activity was determined by measuring the formation of uric acid from xanthine within a set time. Changes in the levels of uric acid produced through the presence of the test samples allow the potency of inhibitors to be assessed. Initially the effect of the polyphenolic fractions and compounds on the inhibition of enzymatic activity was assessed at substrate concentration where maximum velocity was obtained. All initial reaction rates were in the linear scale and were measured over the first 4 min of the reaction. Each assay was performed in triplicates and the optical density was measured using a Hitachi U-1500 Spectrophotometer (San Jose, USA). […] The reaction was initiated through the addition of 43 mU unit of XO diluted in H2O. […] Control samples were prepared identically to the test samples without the addition of the specimen.
The measured absorbance was corrected for the contribution of the tested fractions and the pure polyphenolic compounds.
Statistical computations were carried out using SPSS 13.0 software. For statistical analysis, one-way ANOVA was applied followed by Dunnett's test for multiple pair-wise comparisons. Differences were considered significant at p<0.05. The steady state kinetic parameters (Km and Vmax) were determined (under standard assays conditions) by analyzing formation of uric acid from xanthine under initial rate conditions using the Lineweaver-Burk linearization of the Micaelis-Menten equation. The Ki values and the apparent kinetic parameters Km and Vmax were analyzed with the statistic package Grafit 6 (Erithacus Software, Ltd., Horley, UK).

With `Oc1ncnc2[nH]ncc12` [Allopurinol, 4-hydroxypyrazolo (3,4-d) pyrimidine, reference compound], the Inhibition type result was “Competitive”.

The term Ki denotes the dissociation constant of the complex between target and ligand, obtained from inhibition or displacement. Read a high Ki as weaker binding. Consider `CC1OC(Oc2cc(O)c3c(=O)c(OC4OC(CO)C(O)C(O)C4OC4OC(C)C(O)C(O)C4O)c(-c4ccc(O)c(O)c4)oc3c2)C(O)C(O)C1O` [Compound 1, Quercetin 3-O-[α-L-rhamnopyranosyl(1→2)-β-D-galactopyranosyl]-7-O-α-L-rhamnopyranoside], for which the Inhibition type result is on record as “Non competitive” and the affinity, expressed as Ki, was 115 µM.

Turning to `CC1OC(Oc2cc(O)c3c(=O)c(OC4OC(CO)C(O)C(O)C4OC4OC(C)C(O)C(O)C4O)c(-c4ccc(O)c(O)c4)oc3c2)C(O)C(O)C1O` [Compound 2, Quercetin 3-O[α-L-rhamnopyranosyl(1→2)-β-D-glucopyranosyl]-7-O-α-L-rhamnopyranoside], the inhibitory constant (Ki) is 186 µM.

In the case of `CC1=CC(=O)CC(C)(C)C1(O)C=CC(C)OC1OC(CO)C(O)C(O)C1O` [Compound 3, (6S,9R)-Roseoside], the Inhibition type result is listed as “Non competitive” and the Ki was found to be 767 µM.

Take `CC1OC(Oc2cc(O)c3c(=O)c(OC4OC(CO)C(O)C(O)C4OC4OC(C)C(O)C(O)C4O)c(-c4ccc(O)cc4)oc3c2)C(O)C(O)C1O` [Compound 4a, Kaempferol 3-O-[α-L-rhamnopyranosyl(1→2)-β-D-glucopyranosyl]-7-O-α-L-rhamnopyranoside]: the Inhibition type result was “Non competitive” and the inhibition constant (Ki) was determined as 651 µM.

Compound `CC1OC(Oc2cc(O)c3c(=O)c(OC4OC(CO)C(O)C(O)C4OC4OC(C)C(O)C(O)C4O)c(-c4ccc(O)cc4)oc3c2)C(O)C(O)C1O` [Compound 4b, Kaempferol 3-O-[α-L-rhamnopyranosyl(1→2)-β-D-galactopyranosyl]-7-O-α-L-rhamnopyranoside] yielded an inhibition constant Ki of 50 µM. This lies in the double-digit micromolar range.

`CC1OC(Oc2cc(O)c3c(=O)c(OC4OC(CO)C(O)C(O)C4O)c(-c4ccc(O)cc4)oc3c2)C(O)C(O)C1O` [Compound 5, Kaempferol 3-O-β-D-galactopyranosyl-7-O-α-L-rhamnopyranoside]: the Inhibition type result is given as “Non competitive” and the affinity, expressed as Ki, was 345 µM.

As a reminder, the IC50 is the concentration needed to halve the response being measured. Low readings indicate inhibition by little substance, high ones a need for much substance. As to `CC1OC(Oc2cc(O)c3c(=O)c(OC4OCC(O)C(O)C4O)c(-c4ccc(O)cc4)oc3c2)C(O)C(O)C1O` [Compound 9, Kaempferol 3-O-α-L-arabinopyranosyl-7-O-α-L-rhamnopyranoside], the IC50 is 112 µM, the Inhibition type entry is on record as “Non competitive” and the affinity corresponds to a Ki of 210 µM.

In the case of `CC1OC(Oc2cc(O)c3c(=O)c(OC4OC(CO)C(O)C(O)C4O)c(-c4ccc(O)cc4)oc3c2)C(O)C(O)C1O` [Compound 10, Kaempferol 3-O-β-D-glucopyranosyl-7-O-α-L-rhamnopyranoside], the 50% inhibitory concentration (IC50) was 70.6 µM, the Inhibition type entry is given as “Non competitive” and the Ki amounted to 177 µM.
